Tests used:
[1] = system: HCV replicon in ET (Huh-lucubineo-ET) cell line; experiment: Replicon assay (luciferase, ET cells); type: cell-based, hepatitis C virus
Method: A cell line, ET (Huh-lucubineo-ET) is used for screening of compounds of the present invention for HCV RNA dependent RNA polymerase. The ET cell line is stably transfected with RNA transcripts harboring a I389luc-ubi-neo/NS3-3′/ET; replicon with firefly luciferase-ubiquitin-neomycin phosphotransferase fusion protein and EMCV-IRES driven NS3-5B polyprotein containing the cell culture adaptive mutations (E1202G; T1280I; K1846T) (Krieger at al, 2001 and unpublished). The ET cells are grown in DMEM, supplemented with 10% fetal calf serum, 2 mM Glutamine, Penicillin (100 IU/mL)/Streptomycin (100 μg/mL), 1× nonessential amino acids, and 250 μg/mL G418 (“Geneticin”). They are all available through Life Technologies (Bethesda, Md.). The cells are plated at 0.5-1.0×10^4 cells/well in the 96 well plates and incubated for 24 hrs before adding nucleoside analogs. Then the compounds were added to the cells to achieve a final concentration of 50 or 100 μM, or whatever concentration is desired. For these determinations, 6 dilutions of each compound are used. Compounds are typically diluted 3 fold to span a concentration range of 250 fold. Luciferase activity will be measured 48-72 hours later by adding a lysis buffer and the substrate (Catalog number Glo-lysis buffer E2661 and Bright-Glo leuciferase system E2620 Promega, Madison, Wis.). Cells should not be too confluent during the assay. Percent inhibition of replication will be plotted relative to no compound control. Under the same condition, cytotoxicity of the compounds will be determined using cell proliferation reagent, WST-1 (Roche, Germany). IC50 and TC50 values are calculated by fitting % inhibition at each concentration to the following equation, where b is Hill's coefficient: % inhibition=100%/[(IC50/[I])^b+1]

HCV-NS5b = biological target: T1, HCV-NS5b (Hepatitis C virus genotype 1b, UniProt Q9WMX2); experiment: HCV-NS5b enzyme assay; type: biochemical
T1 construct: The cloned fragment is missing the C terminus 21 amino acid residues; (His)6 (C); made in house; host or cells: XL-1 cells (E. coli, IPTG-inducible plasmid)
Text: The coding sequence of NS5b protein is cloned by PCR from pFKI389luc/NS3-3′/ET as described by Lohmann, V., et al. (1999) Science 285, 110-113 using the following primers: […]
The cloned fragment is missing the C terminus 21 amino acid residues. The cloned fragment is inserted into an IPTG-inducible expression plasmid that provides an epitope tag (His)6 at the carboxy terminus of the protein.
The recombinant enzyme is expressed in XL-1 cells and after induction of expression, the protein is purified using affinity chromatography on a nickel-NTA column. Storage condition is 10 mM Tris-HCl pH 7.5, 50 mM NaCl, 0.1 mM EDTA, 1 mM DTT, 20% glycerol at −20° C.
The polymerase activity is assayed by measuring incorporation of radiolabeled UTP into a RNA product using a biotinylated, heteropolymeric template, which includes a portion of the HCV genome. Typically, the assay mixture (50 μL) contains 10 mM Tris-HCl (pH 7.5), 5 mM MgCl2, 0.2 mM EDTA, 10 mM KCl, 1 unit/μL RNAsin, 1 mM DTT, 10 μM each of NTP, including [^3H]-UTP, and 10 ng/μL heteropolymeric template. Test compounds are initially dissolved in 100% DMSO and further diluted in aqueous buffer containing 5% DMSO. Typically, compounds are tested at concentrations between 1 nM and 100 μM. Reactions are started with addition of enzyme and allowed to continue at 37° C. for 2 hours. Reactions are quenched with 8 μL of 100 mM EDTA and reaction mixtures (30 μL) are transferred to streptavidin-coated scintillation proximity microtiter plates (FlashPlates) and incubated at 4° C. overnight. Incorporation of radioactivity is determined by scintillation counting.

[2] = currently recommended doses; cited from earlier work
HCV = settings: treatment of HCV, long term efficacy; cited from earlier work

Compound | inhibition at 50 µM ([1]; Hepatitis C virus, 50 μM) | inhibition at 100 µM ([1]; Hepatitis C virus, 100 μM) | further results
C[C@@]1(O)C(O)C(CO)OC1n1cc(C#CC(N)=O)c2c(N)ncnc21 (stereo in doubt) [Cmpd 105, 7-(2′-C-methyl-β-D-ribofuranosyl)-4-amino-5-(2-carboxamidoethyn-1-yl)-pyrrolo[2,3-d]pyrimidine] | 69.6% | 89.1% | –
CCOC(C#Cc1cn(C2OC(CO)C(O)[C@@]2(C)O)c2ncnc(N)c12)OCC (stereo in doubt) [Cmpd 106, 7-(2′-C-methyl-β-D-ribofuranosyl)-4-amino-5-[(3,3-diethoxy)proparg-1-yl]-pyrrolo[2,3-d]pyrimidine] | 95.5% | 95.6% | –
C[C@@]1(O)C(O)C(CO)OC1n1cc(C=NO)c2c(N)ncnc21 (stereo in doubt) [Cmpd 173, 7-(2′-C-methyl-β-D-ribofuranosyl)-4-amino-5-(carbaldehyde oxime)-pyrrolo[2,3-d]pyrimidine] | 76.7% | 86.9% | –
C[C@@]1(O)C(O)C(CO)OC1n1cc(B(O)O)c2c(N)ncnc21 (stereo in doubt) [Cmpd 181, 7-(2′-C-methyl-β-D-ribofuranosyl)-4-amino-5-(boronic acid)-pyrrolo[2,3-d]pyrimidine] | 98.2% | 98.1% | –
C[C@@]1(O)[C@H](O)[C@@H](CO)O[C@H]1n1cc(C#C[Si](C)(C)C)c2c(N)ncnc21 [Cmpd 101, 7-(2′-C-methyl-β-D-ribofuranosyl)-4-amino-5-(2′-trimethylsilylethyn-1-yl)-pyrrolo[2,3-d]pyrimidine] | – | – | inhibition at 50 µM ([1]; Hepatitis C virus): 98.1%; inhibition at 100 µM ([1]; Hepatitis C virus): 98.5%
C[C@@]1(O)[C@H](O)[C@@H](CO)O[C@H]1n1cc(C#CC(=O)O)c2c(N)ncnc21 [Cmpd 133, 7-(2′-C-methyl-β-D-ribofuranosyl)-4-amino-5-(2-carboxyethyn-1-yl)-pyrrolo[2,3-d]pyrimidine] | 92.3% | 96.7% | –
CCOC(=O)C#Cc1cn([C@@H]2O[C@H](CO)[C@@H](O)[C@@]2(C)O)c2ncnc(N)c12 [Cmpd 137, 7-(2′-C-methyl-β-D-ribofuranosyl)-4-amino-5-[(ethyl 2-carboxyl)ethyn-1-yl]-pyrrolo[2,3-d]pyrimidine] | 98.1% | 97.6% | –
C[C@@]1(O)[C@H](O)[C@@H](CO)O[C@H]1n1cc(C#Cc2ccccc2)c2c(N)ncnc21 [Cmpd 145, 7-(2′-C-methyl-β-D-ribofuranosyl)-4-amino-5-(2-phenylethyn-1-yl)-pyrrolo[2,3-d]pyrimidine] | 90.7% | 91.8% | –
C[C@@]1(O)[C@H](O)[C@@H](COP(=O)(O)OP(=O)(O)OP(=O)(O)O)O[C@H]1n1cc(C#Cc2ccccc2)c2c(N)ncnc21 [Cmpd 154, 7-(2′-C-methyl-5′-triphospho-β-D-ribofuranosyl)-4-amino-5-(2-phenylethyn-1-yl)-pyrrolo[2,3-d]pyrimidine] | – | – | inhibition at 16.7 µM (HCV-NS5b; 16.7 μM, read-out: Enzyme, % inhibition @Con 2): 10.9%; inhibition at 50 µM (HCV-NS5b; 50 μM, read-out: Enzyme, % inhibition @Con 1): 19.2%
C=Cc1cn([C@@H]2O[C@H](CO)[C@@H](O)[C@@]2(C)O)c2ncnc(N)c12 [Cmpd 157, 7-(2′-C-methyl-β-D-ribofuranosyl)-4-amino-5-(ethen-1-yl)-pyrrolo[2,3-d]pyrimidine] | 89% | 95% | –
CO/C=C\c1cn([C@@H]2O[C@H](CO)[C@@H](O)[C@@]2(C)O)c2ncnc(N)c12 [Cmpd 158, 7-(2′-C-methyl-β-D-ribofuranosyl)-4-amino-5-(2-cis-methoxy-ethen-1-yl)-pyrrolo[2,3-d]pyrimidine] | – | 78.6% | Replicon, % inhibition @100 μM ([1]; 100 μM): 62.4%
C[C@@]1(O)[C@H](O)[C@@H](CO)O[C@H]1n1cc(C=O)c2c(N)ncnc21 [Cmpd 165, 7-(2′-C-methyl-β-D-ribofuranosyl)-4-amino-5-(formyl)-pyrrolo[2,3-d]pyrimidine] | – | – | inhibition at 50 µM ([1]; Hepatitis C virus): 96.8%; inhibition at 100 µM ([1]; Hepatitis C virus): 95.9%
C[C@@]1(O)[C@H](O)[C@@H](COP(=O)(O)O)O[C@H]1n1cc(C=O)c2c(N)ncnc21 [Cmpd 166, 7-(2′-C-methyl-5′-phospho-β-D-ribofuranosyl)-4-amino-5-(formyl)-pyrrolo[2,3-d]pyrimidine] | 97% | – | inhibition at 16.7 µM ([1]; Hepatitis C virus, 16.7 μM, second test): 96.6%
C[C@@]1(O)[C@H](O)[C@@H](COP(=O)(O)OP(=O)(O)OP(=O)(O)O)O[C@H]1n1cc(C=O)c2c(N)ncnc21 [Cmpd 168, 7-(2′-C-methyl-5′-triphospho-β-D-ribofuranosyl)-4-amino-5-(formyl)-pyrrolo[2,3-d]pyrimidine] | – | – | inhibition at 7.7 µM (HCV-NS5b; 7.7 μM, read-out: Enzyme, % inhibition @Con 2): 92%; inhibition at 23.1 µM (HCV-NS5b; 23.1 μM, read-out: Enzyme, % inhibition @Con 1): 96%
C[C@@]1(O)C(O)C(CO)OC1n1cc(/C=N/N)c2c(N)ncnc21 (stereo partly drawn) [Cmpd 169, 7-(2′-C-methyl-β-D-ribofuranosyl)-4-amino-5-(hydrazono)-pyrrolo[2,3-d]pyrimidine] | 80.7% | 89.6% | –
NC(=O)c1ncn([C@@H]2O[C@H](CO)[C@@H](O)[C@H]2O)n1 [Ribavirin, 1-β-D-ribofuranosyl-1H-1,2,-4-triazole-3-carboxamide] | – | – | patients with significant hemolysis [2]: 10-20%
interferon | – | – | response rate (HCV): about 25%
